In one assay the target is KAT-6A (Homo sapiens (Human), UniProt Q92794). As to the kind of experiment: KAT-6A biochemical inhibition assay (SAMDI mass spectrometry). Here is the method:
(§1) KAT-6A. Enzyme assay buffer was 50 mM Tris pH 8.0, 0.002% Tween20, 0.005% bovine skin gelatin, and 1 mM dithiothreitol (DTT). For determination of IC50 values, compounds were serially diluted with 2% (v/v) DMSO in the final reaction, pre-incubating each dilution of each compound with 40 μL of assay buffer containing KAT-6A enzyme (12.5 nM final concentration). 10 μL of assay buffer containing 1 μM peptide substrate and 1 μM acetyl coenzyme A (final concentrations) was added. Reactions (50 μL total) were then carried out at 25° C. for 90 minutes. Reactions were terminated by the addition of 0.5% formic acid (final concentration), and a sample of each reaction was analyzed by SAMDI Tech, Inc. (Chicago, Ill.) using self-assembled monolayer desorption/ionization time-of-flight mass spectrometry (Mrksich, M. (2008) Mass spectrometry of self-assembled monolayers: a new tool for molecular surface science. ACS Nano 2, 7-18).

For the next assay, the target named is KAT-5 (Homo sapiens (Human), UniProt Q92993). The experiment in a line: KAT-5 biochemical inhibition assay (SAMDI mass spectrometry). Here is the method:
as §1, with “KAT-5. Enzyme assay” for “KAT-6A. Enzyme assay”, “buffer containing KAT-5 enzyme (9” for “buffer containing KAT-6A enzyme (12.5”, “KAT-5 enzyme (9 nM final” for “KAT-6A enzyme (12.5 nM final”, “substrate and 0.5 μM acetyl” for “substrate and 1 μM acetyl”

Molecules are shown by their SMILES. Read-outs that look alike come from different tables or passages of the source.

By IC50 is commonly meant the concentration that gives 50% inhibition. Read a high IC50 as lower potency.

Chain of KAT-5 (Q92993 other isoform, or with tags, fused parts or gaps): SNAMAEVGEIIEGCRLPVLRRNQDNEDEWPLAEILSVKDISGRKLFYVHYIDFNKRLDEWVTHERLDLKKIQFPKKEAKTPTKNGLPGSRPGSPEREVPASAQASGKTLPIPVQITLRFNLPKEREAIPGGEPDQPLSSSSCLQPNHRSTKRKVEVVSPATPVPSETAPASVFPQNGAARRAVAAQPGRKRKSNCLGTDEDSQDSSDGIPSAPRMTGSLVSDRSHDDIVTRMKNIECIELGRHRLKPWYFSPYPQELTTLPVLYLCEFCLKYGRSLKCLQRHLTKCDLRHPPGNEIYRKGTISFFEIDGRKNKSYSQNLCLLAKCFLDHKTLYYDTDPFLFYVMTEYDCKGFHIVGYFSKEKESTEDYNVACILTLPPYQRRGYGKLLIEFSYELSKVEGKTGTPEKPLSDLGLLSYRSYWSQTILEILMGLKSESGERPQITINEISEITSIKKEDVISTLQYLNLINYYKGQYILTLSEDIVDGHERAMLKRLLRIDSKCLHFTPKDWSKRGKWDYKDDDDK
Chain of KAT-6A (Q92794 other isoform, or with tags, fused parts or gaps): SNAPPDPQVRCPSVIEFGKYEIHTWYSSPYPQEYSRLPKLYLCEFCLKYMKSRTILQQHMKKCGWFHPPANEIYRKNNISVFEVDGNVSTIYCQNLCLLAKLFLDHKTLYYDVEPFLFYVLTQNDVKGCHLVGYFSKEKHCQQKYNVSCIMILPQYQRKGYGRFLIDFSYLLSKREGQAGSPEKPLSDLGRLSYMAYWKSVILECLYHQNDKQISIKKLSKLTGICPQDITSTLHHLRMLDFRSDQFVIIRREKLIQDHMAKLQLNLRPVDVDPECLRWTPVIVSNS

Compound `Cc1c(-c2ccccc2)ccc(F)c1C(=O)NNS(=O)(=O)c1ccc(Cl)cc1` [Compound A-1] returned an IC50 at KAT-6A (Table 5) of 10 to 50 µM. On to `Cc1cccc(-c2cc(C)c(F)c(C(=O)NNS(=O)(=O)CC3CCN(C(=O)OC(C)(C)C)C3)c2)c1` (stereo not drawn) [Compound A-2], for which, on KAT-6A (Table 5), the IC50 is > 100 µM. On the same count and under the same terms, under `Cc1cccc(-c2cc(C)c(F)c(C(=O)NNS(=O)(=O)CC3CCNC3)c2)c1` (stereo not drawn) [Compound A-3] stands > 100 µM. As to `Cc1cccc(-c2cc(Cl)c(F)c(C(=O)NNS(=O)(=O)CC3CN(C(=O)OC(C)(C)C)CCO3)c2)c1` (stereo not drawn) [Compound A-4], the IC50 against KAT-6A (Table 5) was ≤ 10 µM. In turn, `Cc1cccc(-c2cc(Cl)c(F)c(C(=O)NNS(=O)(=O)CC3CNCCO3)c2)c1` (stereo not drawn) [Compound A-5] had an IC50 on KAT-6A (Table 5) of 10 to 50 µM. Regarding `Cc1cccc(-c2cc(C)c(F)c(C(=O)NNS(=O)(=O)CC3CCCNC3)c2)c1` (stereo not drawn) [Compound A-6], the IC50 against KAT-6A (Table 5) is > 100 µM.

For the compound `Cc1cccc(-c2cc(Cl)c(F)c(C(=O)NNS(=O)(=O)C[C@H]3CCCNC3)c2)c1` [Compound A-7], the IC50 against KAT-6A (Table 5) is > 100 µM. The same measure, in the same setting: under `Cc1cccc(-c2cc(Cl)c(F)c(C(=O)NNS(=O)(=O)CC3CCCN(C)C3)c2)c1` (stereo not drawn) [Compound A-8] stands > 100 µM; under `CCN1CCCC(CS(=O)(=O)NNC(=O)c2cc(-c3cccc(C)c3)cc(Cl)c2F)C1` (stereo not drawn) [Compound A-9], > 100 µM.

On to `Cc1cccc(-c2cc(Cl)c(F)c(C(=O)NNS(=O)(=O)C[C@@H]3CCCNC3)c2)c1` [Compound A-10], for which the IC50 on KAT-6A (Table 5) is > 100 µM. With `Cc1cccc(-c2cc(Cl)c(F)c(C(=O)NNS(=O)(=O)CC3CN(C)CCO3)c2)c1` (stereo not drawn) [Compound A-11], the IC50 against KAT-5 (Table 5) and at KAT-6A (Table 5) was ≤ 10 µM throughout. With `Cc1cccc(-c2cc(Cl)c(F)c(C(=O)NNS(=O)(=O)CCCN(C)Cc3ccccc3)c2)c1` [Compound A-18], the IC50 against KAT-5 (Table 5) and against KAT-6A (Table 5) was > 100 µM each time. For `COc1cc(F)c(S(=O)(=O)NNC(=O)c2cc(-c3cn(C)cn3)cc(Cl)c2F)c(F)c1` [Compound I-421], the IC50 against KAT-6A was < 10 µM. On the same count and under the same terms, under `CNCCOc1ccc(S(=O)(=O)NNC(=O)c2cc(-c3cn(C)cn3)cc(Cl)c2F)cc1` [Compound I-422] stands > 100 µM; under `Cn1cnc(-c2cc(Cl)c(F)c(C(=O)NNS(=O)(=O)c3ccc(F)cc3F)c2)c1` [Compound I-423], < 10 µM; under `CCN1CC(CS(=O)(=O)NNC(=O)c2cc(-c3cn(C)cn3)cc(Cl)c2F)CCC1=O` (stereo not drawn) [Compound I-424], 10 to 50 µM. Still for that read-out and setting: under `CCN(C)C(=O)N(C)C1CC(CS(=O)(=O)NNC(=O)c2cc(-c3cn(C)cn3)cc(Cl)c2F)C1` (stereo not drawn) [Compound I-425] stands 50 to 100 µM; under `COc1ccc(S(=O)(=O)NNC(=O)c2cc(-c3cn(C)cn3)cc(Cl)c2F)c(Cl)c1` [Compound I-426], 10 to 50 µM; under `Cn1cnc(-c2cc(Cl)c(F)c(C(=O)NNS(=O)(=O)C3CCC4CCC3C4)c2)c1` (stereo not drawn) [Compound I-427], 10 to 50 µM. As to `CCNC(=O)N(C)C1CC(CS(=O)(=O)NNC(=O)c2cc(-c3cn(C)cn3)cc(Cl)c2F)C1` (stereo not drawn) [Compound I-428], on KAT-6A, the IC50 is < 10 µM. With `Cn1cnc(-c2cc(Cl)c(F)c(C(=O)NNS(=O)(=O)c3cccc(O)c3)c2)c1` [Compound I-429], the IC50 at KAT-6A was < 10 µM.

For `Cn1cnc(-c2cc(Cl)c(F)c(C(=O)NNS(=O)(=O)c3cccnc3O)c2)c1` [Compound I-430], the IC50 against KAT-6A was 10 to 50 µM.

`Cn1cnc(-c2cc(Cl)c(F)c(C(=O)NNS(=O)(=O)CC3CCN(CC(F)(F)F)CC3)c2)c1` [Compound I-431] came in with an IC50 on KAT-6A of 10 to 50 µM.

Consider `CN(C)CCOc1cccc(S(=O)(=O)NNC(=O)c2cc(-c3cn(C)cn3)cc(Cl)c2F)c1` [Compound I-432], for which the IC50 at KAT-6A is < 10 µM.

On to `CO[C@H]1CCCC[C@@H]1CS(=O)(=O)NNC(=O)c1cc(-c2cn(C)cn2)cc(Cl)c1F` [Compound I-434], for which, at KAT-6A, the IC50 is < 10 µM. `CO[C@@H]1CCCC[C@@H]1CS(=O)(=O)NNC(=O)c1cc(-c2cn(C)cn2)cc(Cl)c1F` [Compound I-435]: at KAT-6A, the IC50 was < 10 µM. For the compound `COCCc1cn(Cc2ccc(OC)cc2)cc1-c1cc(Cl)c(F)c(C(=O)NNS(=O)(=O)CC2CCOCC2)c1` [Compound I-436], at KAT-6A, the IC50 is > 100 µM. At KAT-6A, `Cn1cnc(-c2cc(Cl)c(F)c(C(=O)NNS(=O)(=O)CC3CCCN(CC(F)(F)F)C3)c2)c1` (stereo not drawn) [Compound I-437] returned an IC50 of 10 to 50 µM. Regarding `Cn1cnc(-c2cc(Cl)c(F)c(C(=O)NNS(=O)(=O)c3ccc(Cl)cc3F)c2)c1` [Compound I-438], the IC50 at KAT-6A was < 10 µM. As to `CC(C)Oc1ccc(S(=O)(=O)NNC(=O)c2cc(-c3cn(C)cn3)cc(Cl)c2F)c(F)c1` [Compound I-439], the IC50 on KAT-6A is < 10 µM. Turning to `COCCOc1ccc(S(=O)(=O)NNC(=O)c2cc(-c3cn(C)cn3)cc(Cl)c2F)c(F)c1` [Compound I-440], at KAT-6A, the concentration for half-maximal inhibition (IC50) is < 10 µM. For `CCOc1ccc(S(=O)(=O)NNC(=O)c2cc(-c3cn(C)cn3)cc(Cl)c2F)c(F)c1` [Compound I-441], the IC50 against KAT-6A was < 10 µM. On the same count and under the same terms, the value for `Cn1cnc(-c2cc(Cl)c(F)c(C(=O)NNS(=O)(=O)c3cccc(OCc4ccccc4)c3F)c2)c1` [Compound I-442] was < 10 µM.

Regarding `Cn1cnc(-c2cc(C(=O)NNS(=O)(=O)CC3CCCCC3)c(F)c(Cl)c2C#N)c1` [Compound I-443], the IC50 at KAT-6A is > 100 µM. Still for that read-out and setting: under `Cn1cnc(-c2cc(Cl)c(F)c(C(=O)NNS(=O)(=O)c3cccc(O)c3F)c2)c1` [Compound I-444] stands < 10 µM; under `Cn1cnc(-c2cc(Cl)c(F)c(C(=O)NNS(=O)(=O)C3CCN(CC(F)(F)F)CC3)c2)c1` [Compound I-445], 10 to 50 µM; under `CC([C@H]1CC[C@@H](NC(=O)OC(C)(C)C)CC1)S(=O)(=O)NNC(=O)c1cc(-c2cn(C)cn2)cc(Cl)c1F` (stereo partly drawn) [Compound I-446], < 10 µM. As to `CC([C@H]1CC[C@H](NC(=O)OC(C)(C)C)CC1)S(=O)(=O)NNC(=O)c1cc(-c2cn(C)cn2)cc(Cl)c1F` (stereo partly drawn) [Compound I-447], the IC50 on KAT-6A is < 10 µM. With `CC([C@H]1CC[C@@H](N)CC1)S(=O)(=O)NNC(=O)c1cc(-c2cn(C)cn2)cc(Cl)c1F` (stereo partly drawn) [Compound I-448], the IC50 on KAT-6A was > 100 µM. On to `CC([C@H]1CC[C@H](N)CC1)S(=O)(=O)NNC(=O)c1cc(-c2cn(C)cn2)cc(Cl)c1F` (stereo partly drawn) [Compound I-449], for which the IC50 on KAT-6A is > 100 µM. `Cn1cnc(-c2cc(Cl)c(F)c(C(=O)NNS(=O)(=O)c3cc(OCc4ccccc4)ccc3F)c2)c1` [Compound I-450]: the IC50 at KAT-6A is < 10 µM. `COc1cc(F)c(S(=O)(=O)NNC(=O)c2cc(-c3cn(C)cn3)cc(Cl)c2F)cc1OCc1ccccc1` [Compound I-451]: the IC50 at KAT-6A was in the range of 10 to 50 µM. On the same count and under the same terms, under `Cn1cnc(-c2cc(Cl)c(F)c(C(=O)NNS(=O)(=O)C3CCN(CC(F)(F)F)C3)c2)c1` (stereo not drawn) [Compound I-452] stands 10 to 50 µM; under `Cn1cnc(-c2cc(Cl)c(F)c(C(=O)NNS(=O)(=O)c3cc(O)ccc3F)c2)c1` [Compound I-453], < 10 µM; under `CCNC(=O)N[C@H]1CC[C@@H](C(C)S(=O)(=O)NNC(=O)c2cc(-c3cn(C)cn3)cc(Cl)c2F)CC1` (stereo partly drawn) [Compound I-454], < 10 µM. At KAT-6A, `CCNC(=O)N[C@H]1CC[C@H](C(C)S(=O)(=O)NNC(=O)c2cc(-c3cn(C)cn3)cc(Cl)c2F)CC1` (stereo partly drawn) [Compound I-455] returned an IC50 of 10 to 50 µM. Same read-out and setting: the value for `Cn1cnc(-c2cc(Cl)c(F)c(C(=O)NNS(=O)(=O)C3CCCN(CC(F)(F)F)C3)c2)c1` (stereo not drawn) [Compound I-456] was 10 to 50 µM; that for `COc1ccc(S(=O)(=O)NNC(=O)c2cc(-c3cn(C)cn3)cc(Cl)c2F)cc1OCc1ccccc1` [Compound I-457] was 10 to 50 µM.

Regarding `COc1cc(F)c(S(=O)(=O)NNC(=O)c2cc(-c3cn(C)cn3)cc(Cl)c2F)cc1O` [Compound I-458], the IC50 on KAT-6A is < 10 µM.

In the case of `COc1ccc(S(=O)(=O)NNC(=O)c2cc(-c3cn(C)cn3)cc(Cl)c2F)cc1O` [Compound I-459], the IC50 on KAT-6A was < 10 µM. `Cn1cnc(-c2cc(Cl)c(F)c(C(=O)NNS(=O)(=O)CC3CC3)c2)c1` [Compound I-460] displayed an IC50 on KAT-6A of 10 to 50 µM. Regarding `COCCOC1CCCC(CS(=O)(=O)NNC(=O)c2cc(-c3cn(C)cn3)cc(Cl)c2F)C1` (stereo not drawn) [Compound I-461], the IC50 on KAT-6A is < 10 µM. Regarding `COc1ccc(S(=O)(=O)NNC(=O)c2cc(-c3cn(C)cn3)cc(Cl)c2F)c(F)c1OCc1ccccc1` [Compound I-462], the IC50 against KAT-5 and on KAT-6A was 10 to 50 µM throughout. `COCCOC1CCC(CS(=O)(=O)NNC(=O)c2cc(-c3cn(C)cn3)cc(Cl)c2F)CC1` (stereo not drawn) [Compound I-463]: the IC50 against KAT-6A is < 10 µM.

Consider `COc1cnc(Cl)c(S(=O)(=O)NNC(=O)c2cc(-c3cn(C)cn3)cc(Cl)c2F)c1` [Compound I-464], for which the concentration for half-maximal inhibition (IC50) at KAT-6A is < 10 µM. Still for that read-out and setting: the value for `COc1ccc(S(=O)(=O)NNC(=O)c2cc(-c3cn(C)cn3)cc(Cl)c2F)c(F)c1O` [Compound I-465] was < 10 µM; that for `Cn1cnc(-c2cc(Cl)c(F)c(C(=O)NNS(=O)(=O)C[C@H]3CC[C@H](NCC(F)(F)F)CC3)c2)c1` [Compound I-466] was < 10 µM.

For the origin of these results see US11685732B2, “MYST family histone acetyltransferase inhibitors” (Epizyme, Inc., priority 2017, dated 2023).
